Bridge positions count the residues as written; N and C are the ends. Square brackets hold non-standard residues; d marks the D form. Peptide text beside a SMILES is read from it. I, II: the chains in the order shown. Phe(3,4-Cl2) = N[C@@H](Cc1ccc(Cl)c(Cl)c1)C(=O)O; Phe(4-CF3) = N[C@@H](Cc1ccc(C(F)(F)F)cc1)C(=O)O; Phe(4-Cl) = N[C@@H](Cc1ccc(Cl)cc1)C(=O)O; Phe(4-Me) = Cc1ccc(C[C@H](N)C(=O)O)cc1; Nva(3-Et) = CCC(CC)[C@H](N)C(=O)O; hPhe = N[C@@H](CCc1ccccc1)C(=O)O; tBuAla = CC(C)(C)C[C@H](N)C(=O)O; Cba = N[C@@H](CC1CCC1)C(=O)O
How the values were obtained:
[1] = target: T1, Frizzled-7 (Homo sapiens, UniProt O75084); type: cell-based; conditions: cho
[2] = target: T1, Frizzled-7; conditions: CHO
Description: Binding affinity to recombinant human Frizzled-7 (Gln33 to Leu185 residues)/human IgG1 chimeric protein expressed in CHO cells assessed as association rate constant by SPR assay

[3] = target: T1, Frizzled-7; experiment: biochemical; type: cell-based, CHO; conditions: read-out: Kd

| Compound | Kd [1] [×10⁻³ /s] | Ka [2] [×10⁵ /M/s] | Kd [3] [nM] | Kd ([3]; cho) [nM] |
| --- | --- | --- | --- | --- |
| CSCC[C@H](NC(=O)[C@@H](NC(=O)[C@H](Cc1cnc[nH]1)NC(=O)[C@H](CSSC[C@H](NC(=O)[C@H](Cc1c[nH]c2ccccc12)NC(=O)[C@H](Cc1ccccc1)NC(=O)[C@H](CCC(=O)O)NC(=O)[C@H](Cc1ccccc1)NC(=O)[C@H](CC(=O)O)NC(=O)[C@H](CC(=O)O)NC(=O)[C@H](CO)NC(C)=O)C(=O)N[C@@H](Cc1cnc[nH]1)C(=O)N[C@H](C(=O)N[C@@H](CCSC)C(=O)N[C@@H](Cc1ccc(O)cc1)C(N)=O)C(C)C)NC(=O)[C@H](Cc1c[nH]c2ccccc12)NC(=O)[C@H](Cc1ccccc1)NC(=O)[C@H](CCC(=O)O)NC(=O)[C@H](Cc1ccccc1)NC(=O)[C@H](CC(=O)O)NC(=O)[C@H](CC(=O)O)NC(=O)[C@H](CO)NC(C)=O)C(C)C)C(=O)N[C@@H](Cc1ccc(O)cc1)C(N)=O (I: Ac-SDDFEFWCHVMY-NH2 / II: Ac-SDDFEFWCHVMY-NH2; disulfide I:8-II:8) | 62.8 | 5.3 | 122 | – |
| CSCC[C@H](NC(=O)[C@@H](NC(=O)[C@H](Cc1cnc[nH]1)NC(=O)[C@H](CSSC[C@H](NC(=O)[C@H](Cc1c[nH]c2ccccc12)NC(=O)[C@H](Cc1ccccc1)NC(=O)[C@H](CCC(=O)O)NC(=O)[C@H](CC(C)C)NC(=O)[C@H](CC(=O)O)NC(=O)[C@H](CC(=O)O)NC(=O)[C@H](CO)NC(C)=O)C(=O)N[C@@H](Cc1cnc[nH]1)C(=O)N[C@H](C(=O)N[C@@H](CCSC)C(=O)N[C@@H](Cc1ccc(C)cc1)C(N)=O)C(C)C)NC(=O)[C@H](Cc1c[nH]c2ccccc12)NC(=O)[C@H](Cc1ccccc1)NC(=O)[C@H](CCC(=O)O)NC(=O)[C@H](CC(C)C)NC(=O)[C@H](CC(=O)O)NC(=O)[C@H](CC(=O)O)NC(=O)[C@H](CO)NC(C)=O)C(C)C)C(=O)N[C@@H](Cc1ccc(C)cc1)C(N)=O (I: Ac-SDDLEFWCHVM[Phe(4-Me)]-NH2 / II: Ac-SDDLEFWCHVM[Phe(4-Me)]-NH2; disulfide I:8-II:8) | 0.98 | 10.2 | 0.97 | – |
| CSCC[C@H](NC(=O)[C@@H](NC(=O)[C@H](Cc1cnc[nH]1)NC(=O)[C@H](CSSC[C@H](NC(=O)[C@H](Cc1c[nH]c2ccccc12)NC(=O)[C@H](Cc1ccccc1)NC(=O)[C@H](CCC(=O)O)NC(=O)[C@H](CC1CCC1)NC(=O)[C@H](CC(=O)O)NC(=O)[C@H](CC(=O)O)NC(=O)[C@H](CO)NC(C)=O)C(=O)N[C@@H](Cc1cnc[nH]1)C(=O)N[C@H](C(=O)N[C@@H](CCSC)C(=O)N[C@@H](Cc1ccc(O)cc1)C(N)=O)C(C)C)NC(=O)[C@H](Cc1c[nH]c2ccccc12)NC(=O)[C@H](Cc1ccccc1)NC(=O)[C@H](CCC(=O)O)NC(=O)[C@H](CC1CCC1)NC(=O)[C@H](CC(=O)O)NC(=O)[C@H](CC(=O)O)NC(=O)[C@H](CO)NC(C)=O)C(C)C)C(=O)N[C@@H](Cc1ccc(O)cc1)C(N)=O (I: Ac-SDD[Cba]EFWCHVMY-NH2 / II: Ac-SDD[Cba]EFWCHVMY-NH2; disulfide I:8-II:8) | 9.7 | 4.6 | 20.3 | – |
| CSCC[C@H](NC(=O)[C@@H](CC(C)(C)C)NC(=O)[C@H](Cc1cnc[nH]1)NC(=O)[C@H](CSSC[C@H](NC(=O)[C@H](Cc1c[nH]c2ccccc12)NC(=O)[C@H](Cc1ccccc1)NC(=O)[C@H](CCC(=O)O)NC(=O)[C@H](CC(C)C)NC(=O)[C@H](CC(=O)O)NC(=O)[C@H](CC(=O)O)NC(=O)[C@H](CO)NC(C)=O)C(=O)N[C@@H](Cc1cnc[nH]1)C(=O)N[C@H](CC(C)(C)C)C(=O)N[C@@H](CCSC)C(=O)N[C@@H](Cc1ccc(O)cc1)C(N)=O)NC(=O)[C@H](Cc1c[nH]c2ccccc12)NC(=O)[C@H](Cc1ccccc1)NC(=O)[C@H](CCC(=O)O)NC(=O)[C@H](CC(C)C)NC(=O)[C@H](CC(=O)O)NC(=O)[C@H](CC(=O)O)NC(=O)[C@H](CO)NC(C)=O)C(=O)N[C@@H](Cc1ccc(O)cc1)C(N)=O | 2.16 | 68.8 | – | 0.32 |
| CSCC[C@H](NC(=O)[C@@H](NC(=O)[C@H](Cc1cnc[nH]1)NC(=O)[C@H](CSSC[C@H](NC(=O)[C@H](Cc1c[nH]c2ccccc12)NC(=O)[C@H](Cc1ccc(Cl)cc1)NC(=O)[C@H](CCC(=O)O)NC(=O)[C@H](CC(C)C)NC(=O)[C@H](CC(=O)O)NC(=O)[C@H](CC(=O)O)NC(=O)[C@H](CO)NC(C)=O)C(=O)N[C@@H](Cc1cnc[nH]1)C(=O)N[C@H](C(=O)N[C@@H](CCSC)C(=O)N[C@@H](Cc1ccc(O)cc1)C(N)=O)C(C)C)NC(=O)[C@H](Cc1c[nH]c2ccccc12)NC(=O)[C@H](Cc1ccc(Cl)cc1)NC(=O)[C@H](CCC(=O)O)NC(=O)[C@H](CC(C)C)NC(=O)[C@H](CC(=O)O)NC(=O)[C@H](CC(=O)O)NC(=O)[C@H](CO)NC(C)=O)C(C)C)C(=O)N[C@@H](Cc1ccc(O)cc1)C(N)=O (I: Ac-SDDLE[Phe(4-Cl)]WCHVMY-NH2 / II: Ac-SDDLE[Phe(4-Cl)]WCHVMY-NH2; disulfide I:8-II:8) | 1.71 | 16.5 | 1.04 | – |
| CSCC[C@H](NC(=O)[C@@H](NC(=O)[C@H](Cc1cnc[nH]1)NC(=O)[C@H](CSSC[C@H](NC(=O)[C@H](Cc1c[nH]c2ccccc12)NC(=O)[C@H](Cc1ccccc1)NC(=O)[C@H](CCC(=O)O)NC(=O)[C@H](CC(C)C)NC(=O)[C@H](CC(=O)O)NC(=O)[C@H](CC(=O)O)NC(=O)[C@H](CO)NC(C)=O)C(=O)N[C@@H](Cc1cnc[nH]1)C(=O)N[C@H](C(=O)N[C@@H](CCSC)C(=O)N[C@@H](Cc1ccc(C(F)(F)F)cc1)C(N)=O)C(C)C)NC(=O)[C@H](Cc1c[nH]c2ccccc12)NC(=O)[C@H](Cc1ccccc1)NC(=O)[C@H](CCC(=O)O)NC(=O)[C@H](CC(C)C)NC(=O)[C@H](CC(=O)O)NC(=O)[C@H](CC(=O)O)NC(=O)[C@H](CO)NC(C)=O)C(C)C)C(=O)N[C@@H](Cc1ccc(C(F)(F)F)cc1)C(N)=O (I: Ac-SDDLEFWCHVM[Phe(4-CF3)]-NH2 / II: Ac-SDDLEFWCHVM[Phe(4-CF3)]-NH2; disulfide I:8-II:8) | 1.9 | 1.45 | 13.1 | – |
| CSCC[C@H](NC(=O)[C@@H](NC(=O)[C@H](Cc1cnc[nH]1)NC(=O)[C@H](CSSC[C@H](NC(=O)[C@H](Cc1c[nH]c2ccccc12)NC(=O)[C@H](Cc1ccccc1)NC(=O)[C@H](CCC(=O)O)NC(=O)[C@H](CCc1ccccc1)NC(=O)[C@H](CC(=O)O)NC(=O)[C@H](CC(=O)O)NC(=O)[C@H](CO)NC(C)=O)C(=O)N[C@@H](Cc1cnc[nH]1)C(=O)N[C@H](C(=O)N[C@@H](CCSC)C(=O)N[C@@H](Cc1ccc(O)cc1)C(N)=O)C(C)C)NC(=O)[C@H](Cc1c[nH]c2ccccc12)NC(=O)[C@H](Cc1ccccc1)NC(=O)[C@H](CCC(=O)O)NC(=O)[C@H](CCc1ccccc1)NC(=O)[C@H](CC(=O)O)NC(=O)[C@H](CC(=O)O)NC(=O)[C@H](CO)NC(C)=O)C(C)C)C(=O)N[C@@H](Cc1ccc(O)cc1)C(N)=O (I: Ac-SDD[hPhe]EFWCHVMY-NH2 / II: Ac-SDD[hPhe]EFWCHVMY-NH2; disulfide I:8-II:8) | 9.1 | 69.6 | 1.4 | – |
| CSCC[C@H](NC(=O)[C@@H](NC(=O)[C@H](Cc1cnc[nH]1)NC(=O)[C@H](CSSC[C@H](NC(=O)[C@H](Cc1c[nH]c2ccccc12)NC(=O)[C@H](Cc1ccccc1)NC(=O)[C@H](CCC(=O)O)NC(=O)[C@H](CC(C)(C)C)NC(=O)[C@H](CC(=O)O)NC(=O)[C@H](CC(=O)O)NC(=O)[C@H](CO)NC(C)=O)C(=O)N[C@@H](Cc1cnc[nH]1)C(=O)N[C@H](C(=O)N[C@@H](CCSC)C(=O)N[C@@H](Cc1ccc(O)cc1)C(N)=O)C(C)C)NC(=O)[C@H](Cc1c[nH]c2ccccc12)NC(=O)[C@H](Cc1ccccc1)NC(=O)[C@H](CCC(=O)O)NC(=O)[C@H](CC(C)(C)C)NC(=O)[C@H](CC(=O)O)NC(=O)[C@H](CC(=O)O)NC(=O)[C@H](CO)NC(C)=O)C(C)C)C(=O)N[C@@H](Cc1ccc(O)cc1)C(N)=O (I: Ac-SDD[tBuAla]EFWCHVMY-NH2 / II: Ac-SDD[tBuAla]EFWCHVMY-NH2; disulfide I:8-II:8) | 0.95 | 44 | 0.22 | – |
| CSCC[C@H](NC(=O)[C@@H](NC(=O)[C@H](Cc1cnc[nH]1)NC(=O)[C@H](CSSC[C@H](NC(=O)[C@H](Cc1c[nH]c2ccccc12)NC(=O)[C@H](Cc1ccccc1)NC(=O)[C@H](CCC(=O)O)NC(=O)[C@H](CC(C)C)NC(=O)[C@H](CC(=O)O)NC(=O)[C@H](CC(=O)O)NC(=O)[C@H](CO)NC(C)=O)C(=O)N[C@@H](Cc1cnc[nH]1)C(=O)N[C@H](C(=O)N[C@@H](CCSC)C(=O)N[C@@H](Cc1ccc(Cl)c(Cl)c1)C(N)=O)C(C)C)NC(=O)[C@H](Cc1c[nH]c2ccccc12)NC(=O)[C@H](Cc1ccccc1)NC(=O)[C@H](CCC(=O)O)NC(=O)[C@H](CC(C)C)NC(=O)[C@H](CC(=O)O)NC(=O)[C@H](CC(=O)O)NC(=O)[C@H](CO)NC(C)=O)C(C)C)C(=O)N[C@@H](Cc1ccc(Cl)c(Cl)c1)C(N)=O (I: Ac-SDDLEFWCHVM[Phe(3,4-Cl2)]-NH2 / II: Ac-SDDLEFWCHVM[Phe(3,4-Cl2)]-NH2; disulfide I:8-II:8) | 0.9 | 1.4 | 6.4 | – |
| CCC(CC)[C@H](NC(=O)[C@H](CC(=O)O)NC(=O)[C@H](CC(=O)O)NC(=O)[C@H](CO)NC(C)=O)C(=O)N[C@@H](CCC(=O)O)C(=O)N[C@@H](Cc1ccccc1)C(=O)N[C@@H](Cc1c[nH]c2ccccc12)C(=O)N[C@@H](CSSC[C@H](NC(=O)[C@H](Cc1c[nH]c2ccccc12)NC(=O)[C@H](Cc1ccccc1)NC(=O)[C@H](CCC(=O)O)NC(=O)[C@@H](NC(=O)[C@H](CC(=O)O)NC(=O)[C@H](CC(=O)O)NC(=O)[C@H](CO)NC(C)=O)C(CC)CC)C(=O)N[C@@H](Cc1cnc[nH]1)C(=O)N[C@H](C(=O)N[C@@H](CCSC)C(=O)N[C@@H](Cc1ccc(O)cc1)C(N)=O)C(C)C)C(=O)N[C@@H](Cc1cnc[nH]1)C(=O)N[C@H](C(=O)N[C@@H](CCSC)C(=O)N[C@@H](Cc1ccc(O)cc1)C(N)=O)C(C)C (I: Ac-SDD[Nva(3-Et)]EFWCHVMY-NH2 / II: Ac-SDD[Nva(3-Et)]EFWCHVMY-NH2; disulfide I:8-II:8) | 29.2 | 73.6 | 3.9 | – |

Source: ChEMBL document CHEMBL4373723 (J Med Chem, 2019)
